Patent US20230314443A1, “METHODS OF IDENTIFYING INTERACTIONS OF A COMPOUND AND A CONDENSATE, OR A COMPONENT THEREOF, AND USES THEREOF” (Dewpoint Therapeutics, Inc., priority 2020, published 2023)

What was measured:
FUS-RRM = target: T1, FUS-RRM (Homo sapiens, UniProt P35637); test: NMR 1H/15N-HSQC titration of FUS-RRM with Rho800 (chemical shift perturbations); format: binding; conditions: CSPs by 1H/15N-HSQC 2D-NMR; FIG. 5A, 5B
T1 construct: made in house; host or cells: E. coli
T1 sequence (P35637 285-371 limits assumed): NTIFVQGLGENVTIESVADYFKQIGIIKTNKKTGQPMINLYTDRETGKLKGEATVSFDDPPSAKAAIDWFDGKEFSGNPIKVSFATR
Method: For binding study, recombinant ^15N-isotope and ^15N/^13C-labeled FUS-RRM proteins were expressed in E. coli and purified using published methods. NMR peak assignments were transferred from publicly available data repositories and confirmed using standard 3D NMR methods. […] protein was titrated with Rho800, ^1H/^15N-HSQC (heteronuclear single quantum coherence) were recorded, and chemical shift perturbations (CSPs) were calculated from the […] Rho800 spectra.

FUS-mEGFP/RNA droplets = target: T2, FUS-mEGFP/RNA droplets (Homo sapiens, UniProt P35637); test: Rho800 titration in FUS-mEGFP/RNA droplets (confocal imaging of Rho800 and FUS-mEGFP intensity inside droplets); conditions: increasing Rho800 concentrations, FIG. 4
T2 sequence (P35637 1-526): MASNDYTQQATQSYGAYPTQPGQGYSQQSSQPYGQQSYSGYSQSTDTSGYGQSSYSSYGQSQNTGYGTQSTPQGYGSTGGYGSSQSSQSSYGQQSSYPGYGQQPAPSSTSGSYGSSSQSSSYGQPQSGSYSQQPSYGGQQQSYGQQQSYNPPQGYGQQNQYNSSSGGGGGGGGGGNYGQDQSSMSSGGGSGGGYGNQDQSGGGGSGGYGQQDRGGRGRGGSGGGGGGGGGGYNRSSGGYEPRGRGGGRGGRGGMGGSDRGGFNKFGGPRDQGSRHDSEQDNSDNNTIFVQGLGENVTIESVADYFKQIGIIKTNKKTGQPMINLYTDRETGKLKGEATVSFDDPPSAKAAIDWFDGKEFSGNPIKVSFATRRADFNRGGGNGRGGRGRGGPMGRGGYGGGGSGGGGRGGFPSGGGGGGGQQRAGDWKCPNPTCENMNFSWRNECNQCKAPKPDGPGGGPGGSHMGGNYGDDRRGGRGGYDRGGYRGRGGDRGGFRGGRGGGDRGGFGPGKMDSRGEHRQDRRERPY
Method: For partitioning study, droplets were prepared in a low-attachment 384-well plate by mixing recombinant FUS-mEGFP protein with synthetic PrD RNA, in the presence of the indicated concentration of Rho800, at a final concentration of […] FUS-mEGFP and 250 nM PrD RNA, using an automated liquid handler. The droplets were incubated at room temperature, in the dark for 4 hours and imaged using a high content confocal fluorescence microscope. Values indicated on the y-axis of FIG. 4 (n=3) were obtained by quantitative image analysis and represent the mean per well intensity of FUS-mEGFP and Rho800 inside segmented droplets.

FUS-EGFP condensate = target: T3, FUS-EGFP condensate (Homo sapiens, UniProt P35637); test: Modulation of FUS-EGFP partitioning into the condensate by RhoB (confocal microscopy); format: biochemical; conditions: 1.5 μM RhoB vs no RhoB; FIG. 3C
T3 sequence (P35637 1-526): T2 sequence (P35637 1-526)
Method: EGFP-tagged FUS protein (“FUS-EGFP”) and RhoB were mixed and subjected to phase separation condition. The final concentration of RhoB in the reaction was 1.5 μM. For control experiment, no RhoB was added. Images were acquired with a confocal microscope, and EGFP signal inside (I-in) and outside (I-out) of the FUS-EGFP condensate was measured as described above.

FUS-SNAP protein = target: T4, FUS-SNAP protein (Homo sapiens, UniProt P35637); test: Binding affinity of RhoB to FUS-SNAP protein in the light phase (Dianthus MST); conditions: FIG. 3B
T4 sequence (P35637 1-526): T2 sequence (P35637 1-526)
Method: The binding affinity (Kd) of RhoB to FUS-SNAP protein in the light phase was measured using Dianthus MST technology.

FUS-SNAP condensates = target: T5, FUS-SNAP condensates (Homo sapiens, UniProt P35637); test: Partitioning of RhoB into FUS-SNAP condensates formed in vitro (fluorescence and mass spectrometry); conditions: RhoB 5 μM and 1.25 μM; fluorescence spectroscopy (RhoB-FL) and mass spectroscopy (RhoB-MS); fraction of RhoB in supernatant; FIG. 3A
T5 sequence (P35637 1-526): T2 sequence (P35637 1-526)
Method: SNAP-tagged FUS protein (“FUS-SNAP”) and RhoB were mixed and subjected to a phase separation condition. The final concentration of RhoB in the reaction was 5 μM and 1.25 μM. For control experiment, no RhoB was added. The partition characteristic of RhoB to FUS-SNAP condensate was then measured by both a fluorescence spectroscopy and a mass spectroscopy-based technique described herein.
Images of the condensate droplets were acquired with a confocal microscope for appropriate setting for RhoB. The background signal of FUS-SNAP droplets in the absence of RhoB was also recorded. Fluorescence intensity was measured inside a FUS-SNAP condensate and in a region next to (outside) the FUS-SNAP condensate, and corrected for background signal (no RhoB controls), to calculate the fraction of RhoB in extra-condensate solution (i.e., supernatant).
A mass spectrometry-based method was used to measure the partition characteristics of RhoB and compared to measurements obtained using the fluorescence-based assay above. […] The amount of RhoB in the supernatant and a reference reaction were measured using mass spectrometry. The partition characteristic was then calculated based on the fraction of RhoB in extra-condensate solution (i.e., supernatant).

binding of Rho800 to FUS-RRM domain (FUS-RRM) | partitioning of EGFP-labeled FUS into the condensate in the presence of RhoB (FUS-EGFP condensate) | Kd (FUS-SNAP protein) [µM] | partitioning of RhoB into FUS-SNAP condensates (FUS-SNAP condensates) | Structure (SMILES) | partitioning of Rho800 into the condensate droplets (FUS-mEGFP/RNA droplets; 4 hours at room temperature) | partitioning of FUS-mEGFP in the condensate droplets in the presence of Rho800 (FUS-mEGFP/RNA droplets)
binds directly to the FUS-RRM domain | – | – | – | N#CC1=c2cc3c4c(c2Oc2c1cc1c5c2CCCN5CCC1)CCC[N+]=4CCC3 [Rho800] | increased partitioning of the compound into the condensate droplets | FUS-mEGFP de-partitioning from the condensate droplets
– | partitioned less into the condensate | 17.1 | partitions into FUS-SNAP condensates | CCN(CC)c1ccc2c(-c3ccccc3C(=O)O)c3ccc(=[N+](CC)CC)cc-3oc2c1 [RhoB, Rhodamine B] | – | –
